We go through 6 molecules from patent US9211242B2, “Nail-hardening cosmetic composition, use of aldehydes to harden and strengthen nails, and method for applying same” (FIABILA, priority 2009, dated 2015).

In one data set the test system is fingernails. The data set can be described thus: In vivo tests of efficacy on a panel of people, polish applied to nails. As to conditions: hexanal 0.05% by weight, panel of 22, four weeks. An excerpt:
The composition from example 1 was the subject of in vivo tests on a panel of 22 people aged at least 30 years old, over four weeks, in order to evaluate the efficacy and tolerance. […] The polish was applied under normal usage conditions (namely three applications per week).
The marks of general satisfaction with the cosmetic composition oscillated between 16.9 and 18.3/20.
The marks of general satisfaction with the cosmetic composition oscillated between 16 and 17.3/20.

A further data set has as its system nails. As to the kind of experiment: In vivo comparison of hexanal composition with citral composition, one hand each. Set-up: species or system people. The settings on record: same concentrations, panel of 22, four weeks. An excerpt:
The composition of example 1 and also a composition 1a identical to that of example 1, but in which the hexanal has been replaced by citral, in the same concentrations, were the subject of in vivo tests on a new panel of 22 people under the same conditions as those of the tests from example 1. Each person applied the composition with hexanal to the nails of one hand, and the composition with citral to the nails of the other hand. The right hand/left hand choice was random.

Data set [1] is described as follows: Aging and yellowing tests. It is filed as physicochemical. Here is the method: Various aliphatic aldehydes were incorporated into a cosmetic composition, having a formulation corresponding to example 2, at concentrations respectively of 0.001%, 0.002%, 0.005% and 0.01%.
These were methylbutyraldehyde (by way of comparison), hexanal, nonanal, trans-4-decenal, undecanal and undecylenic aldehyde.
The aging, and in particular the tendency toward yellowing, of each composition were tested. The various tests performed comprise holding for one month in an oven at 45° C. and four months in an oven at 50° C., and also exposure to “SUNTEST CPS+”, i.e. in a sealed chamber, regulated at 50° C. under a 500 Watt/m^2 UV/visible lamp for 3×10 hours.
The yellowing was evaluated relative to control compositions having identical formulations, kept at room temperature (20-25° C.), in the dark, for the same duration.

The mark [2] stands for this setting: 0.01% by weight in composition, aging tests relative to controls.
Setting [3] is: 0.01% in composition, one month in an oven at 45° C., relative to controls at room temperature in the dark.

Turning to `CCCCCC=O` [hexanal], the “Subjects who noticed an overall improvement in the quality of their nails” value in the data set with fingernails is reported as “more than 90%”. In addition, in the data set on nails, the “Superiority to citral in improvement of brittle nails” value is on record as “+10%”, the “Superiority to citral in improvement of nail hardness” value is “+8.5%” and the “Superiority to citral in improvement of nail weakness” value was “+18%”. Further, the Yellowing entry in data set [1] (setting [2]) is “did not exhibit yellowing”.

On to `CCCCCCCCC=O` [nonanal], for which, in data set [1] (setting [2]), the Yellowing entry is on record as “did not exhibit yellowing”.

`CCCCC/C=C/CCC=O` [trans-4-decenal]: the Yellowing entry in data set [1] (setting [2]) was “did not exhibit yellowing”.

For the molecule `CCCCCCCCCCC=O` [undecanal], the Yellowing entry in data set [1] (setting [2]) was “did not exhibit yellowing”.

As to `C=CCCCCCCCCC=O` [undecylenic aldehyde, 10-undecenal], in data set [1] (setting [3]), the Yellowing result is listed as “exhibited yellowing”.

Consider “methylbutyraldehyde [reference compound]”, for which the Yellowing entry in data set [1] (setting [3]) was “exhibited yellowing”.
